{"source": "patent US20090053199A1", "about": "“Stable Dairy Components Effective for Fat Loss” (priority 2005, published 2009)", "test_system": "transgenic mice expressing agouti specifically in adipocytes under the control of the aP2 promoter", "experiment": "Example 2: weight, fat pad and muscle mass after six weeks on diets including fresh whey products", "assay_type": "in vivo", "conditions": "Example 2, FIG. 11, 1 = Ad Lib, 2 = loCa, 3 = milk, 4 = fresh whey protein, 5 = casein, 6 = soy, 7 = fresh whey mineral, 8 = fresh whey mineral/ACE", "excerpt": "The same animals were used as in Example 1. […] All diets had 25% fat (lard+soy oil), with sucrose as sole carbohydrate and the proteins indicated as the sole protein source. Group 1 continued for 6 weeks on the above diet ad libitum. Groups 2-8 continued for six weeks on a restricted diet (70% of the ad libitum energy intake). […] Group 8 used a fresh whey mineral isolate with a whey-derived ACE-inhibitor (e.g., BIPRO). During the six weeks, body weight, food intake and core temperature were measured weekly. […] Specifically, core temperature was monitored weekly as an indirect metabolic index using a thermocouple, and fasting insulin (by radioimmunoassay), leptin (by radioimmunoassay) and glucose (by glucose oxidase) levels were assessed at baseline and at weeks 2, and 6. At the conclusion of the study, all mice were sacrificed under isofluorane anaesthesia and individual subcutaneous and visceral fat depots were excised and weighed for comparison of fat accumulation among the groups and assessment of adipocyte size and number via a Coulter Counter method. Aliquots of adipose tissue were then immediately frozen in liquid nitrogen for subsequent study of gene expression.", "data": [{"smiles": "O=C([O-])[O-].[Ca+2]", "note": "[calcium carbonate]", "values": [{"measurement": "gastrocnemius muscle mass (most to least), Benefit Ranking", "value": "did not modify or attenuate this decrease"}]}]}
